Experiments:
[1] = test system: vascular EDS patients; conditions: vascular EDS patients taking celiprolol, compared to placebo (Ong et al., 2010); cited from earlier work
[2] = test system: kyphoscoliotic EDS patient; assay: Case report: celiprolol in prevention of further arterial events in a kyphoscoliotic EDS patient; type: in vivo, human
Excerpt: All ruptures occurred following minor trauma. The right eye ruptured twice, the left eye once only. […] Their family history was remarkable by the death of their only and younger sibling, by spontaneous abdominal aortic rupture. Their phenotype was similar to their […] sibling's.
Physical examination evidenced major cutaneous fragility (bruising) and dystrophic scars. […] furthermore presented a severe kyphoscoliosis and diffuse joint hypermobility (Beighton score 8/9) with instability, particularly of the left shoulder (recurrent dislocations). Further osteoarticular signs were pes planus and minor pectus excavatum. […] The dissecting aneurysm of the celiac trunk also remained stable and a complete regression of the extension of the dissection to the SMA was noted. Two years later, the patient presented with similar pain in the left calf. Doppler ultrasound documented a left tibial anterior dissecting aneurysm. This second clinical event also resolved medically. Celiprolol was initiated and up-titrated to the optimally tolerated dose (400 mg/day) in prevention of further arterial events.

CCN(CC)C(=O)Nc1ccc(OCC(O)CNC(C)(C)C)c(C(C)=O)c1 (stereo not shown) [Celiprolol, N′-(3-Acetyl-4-(3-((1,1-dimethylethyl)amino)-2-hydroxypropoxy)phenyl)-N, N-diethylurea]
incidence of arterial rupture or dissection [1]: decreased incidence of arterial rupture or dissection | clinical course (arterial events) under celiprolol ([2]; one patient with recurrent arterial dissections, up-titrated to 400 mg/day, 3 years follow-up): remained clinically silent | systematic arterial monitoring for silent arterial defects ([2]; same patient, 400 mg/day, 3 years follow-up): did not evidence further silent arterial defects | novel arterial manifestation under celiprolol treatment ([2]; same patient, four year follow-up): without novel arterial manifestation
